Bridges are numbered along the chain shown (N, C = ends). Roman numbers before positions name the chains, in order. Where no end group is shown, it is not given here.

The text below walks through data of PMC11790763, “A Peptide Motif Covering Splice Site B in Neuroligin-1 Binds to Aβ and Acts as a Neprilysin Inhibitor” (Molecular Neurobiology, 2024).

One experiment addresses T1, brain-derived NEP (Mus musculus, UniProt Q61391).
T1 construct: Clear supernatants were used as membrane-extracted fractions; from tissue; host or cells: adult mouse brain without cerebellum, Triton X-100-extracted membrane fraction
T1 sequence (Q61391 1-750): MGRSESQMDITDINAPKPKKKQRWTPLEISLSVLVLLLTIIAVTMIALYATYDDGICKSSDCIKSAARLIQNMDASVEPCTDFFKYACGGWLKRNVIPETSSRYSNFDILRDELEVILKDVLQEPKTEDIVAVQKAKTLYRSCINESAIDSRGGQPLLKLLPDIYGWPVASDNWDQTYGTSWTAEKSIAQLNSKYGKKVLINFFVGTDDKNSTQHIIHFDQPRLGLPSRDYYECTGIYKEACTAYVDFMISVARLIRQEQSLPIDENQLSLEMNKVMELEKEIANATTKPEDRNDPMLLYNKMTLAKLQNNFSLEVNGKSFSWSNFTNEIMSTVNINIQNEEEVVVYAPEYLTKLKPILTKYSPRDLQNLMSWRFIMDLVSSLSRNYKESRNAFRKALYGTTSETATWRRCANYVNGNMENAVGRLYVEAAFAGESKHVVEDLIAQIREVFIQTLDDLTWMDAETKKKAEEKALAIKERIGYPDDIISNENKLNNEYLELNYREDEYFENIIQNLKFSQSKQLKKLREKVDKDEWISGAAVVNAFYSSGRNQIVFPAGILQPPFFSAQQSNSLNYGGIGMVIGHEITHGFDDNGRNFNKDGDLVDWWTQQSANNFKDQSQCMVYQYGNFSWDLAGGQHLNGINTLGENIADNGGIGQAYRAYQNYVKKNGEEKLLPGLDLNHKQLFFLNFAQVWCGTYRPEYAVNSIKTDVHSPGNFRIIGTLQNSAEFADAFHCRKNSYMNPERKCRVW
Kind of experiment: Neprilysin activity in NEP-enriched brain membrane fraction of 5XFAD mice. Type of experiment: biochemical, mouse (5XFAD). Particulars: 5XFAD mice membrane fraction; neurolide 10 μM; n = 6. Here is the method:
To measure NEP activity in brain tissue, whole brains without cerebellum were dissected from adult mice (C57Bl/6j or 5XFAD) and homogenized with a Teflon-glass homogenizer in five volumes (w/v) of ice-cold lysis buffer containing PBS (pH 7.4), 0.25 M sucrose and protease inhibitor cocktail (Complete™, EDTA-free, Roche Diagnostics, Indianapolis, IN). The homogenates were centrifuged at 9000 × g for 15 min at 4 °C. The supernatants were further centrifuged at 20,000 × g at 4 °C for 20 min. The resulting pellets were solubilized in resuspension buffer containing PBS (pH 7.4) and 1% Triton X-100 for 1 h on ice and again centrifuged at 20,000 × g at 4 °C for 20 min. Clear supernatants were used as membrane-extracted fractions. Protein concentrations of Triton-extracted membrane fractions were determined using the Pierce BCA Protein Assay kit (Thermo Fisher Scientific). The standard assay mixture consisted of membrane fraction containing 40 μg total protein diluted in 40 μl of dilution buffer, 10 μl of testing compound (NL1, neurolide or vehicle), and 50 μl of NEP substrate (5-FAM/QXL; Anaspec) in a total volume of 100 μl. The reaction was initiated by adding substrate to the assay mixture. […] Fluorescence was measured at Ex/Em = 485/535 nm every 20 min for 2 h. The data were expressed as percentage of relative activity of neprilysin.

The test system of experiment [1] is WT and 5XFAD mice. As to the kind of experiment: Y-maze test. Type of experiment: in vivo, mouse. Particulars: 10 mg/kg s.c. three times a week for 10 weeks. The method, then:
(§1) At the age of 2 months, 5XFAD and WT mice were injected subcutaneously (s.c.) with either neurolide (10 mg/kg) or saline in a volume of 0.1 ml/10 g of body weight three times a week for 10 weeks.
To estimate the effect of neurolide on spatial working memory, the Y-maze test was used, wherein the recording of alternation behavior was assessed. Mice were placed in the middle of the three-arm maze, joined with equal angle between all arms, and allowed to explore the maze freely for 8 min. The sequence and total number of entries into each arm were assessed in video recordings. Arm entry was considered completed when the hind paws of the mouse had been placed in the arm. An actual alternation was defined as entries into all three arms on consecutive choices. Percentage alternation was calculated as the ratio of actual to possible alternation (defined as total number of arm entries − 2) × 100, as follows: %Alternation=Number of alternations/Total arm entries-2×100.

Experiment [2] concerns WT and 5XFAD mice. Kind of experiment: Novel object recognition task. Type of experiment: in vivo, mouse. Particulars: 10 mg/kg s.c. three times a week for 10 weeks. The method, then:
as §1
The novel object recognition assay is based on the innate tendency of animals to differentially explore novel and familiar objects and consists of habituation, training, short-term (2 h) and long-term (24 h) memory retention sessions. On day 1, the mice were habituated to the test area (a 35 × 35 cm box with a floor divided into 16 squares). Each mouse was placed into a box without objects and allowed to explore it freely for 5 min. During a training session, a mouse was placed in the test box and exposed to 2 identical nontransparent glass objects placed in the box. During 5 min, locomotion and exploration time for both objects were recorded. Exploration of an object was defined as pointing the nose to the object at a distance of ≤ 1 cm and/or touching it with the nose. Climbing or sitting on the object was not considered exploration. Short-term memory retention was evaluated 2 h after the training session, whereas long-term memory retention was evaluated 24 h after the training session. During both sessions, mice were exposed to the familiar object and to a novel object. The exploration time for the familiar and novel objects and locomotion were recorded for 5 min. Mice failing to explore one or both objects in the training trial were excluded from the statistical analysis.

Another experiment relates to 5XFAD mice. As to the kind of experiment: GFAP immunoreactivity (astrogliosis) in cortex. Type of experiment: in vivo, mouse. Particulars: 10 mg/kg s.c. three times a week for 10 weeks, neurolide n = 11 versus vehicle n = 13, p < 0.01. The method, then:
as §1
After 10 weeks of treatment, mice were transcardially perfused with 0.1 M PBS, pH 7.4 under deep pentobarbital anesthesia (intraperitoneal, 200 mg/kg). The left brain hemispheres were postfixed in 4% paraformaldehyde in PBS. The brain hemispheres were further dehydrated in ethanol, cleared, embedded in paraffin blocks and serially sectioned into 7-μm coronal sections through the entire brain hemisphere. Parallel series of sections were collected, consisting of 12 equally spaced Sects. (400 μm apart). One of the series was stained with 1% Thioflavin-S for histological evaluation of Aβ plaque formation. Another series was used for immunohistochemical staining of GFAP + astrocytes as described previously. Extracellular Aβ plaque load was assessed in cortex, hippocampus, striatum, thalamus, and hypothalamus. GFAP-positive astrocytes were assessed in motor cortex. Serial super images of whole-brain sections were acquired using an Olympus BX-51 microscope equipped with the Visiopharm Integrator System software (Visiopharm) and analyzed using the ImageJ software package. […] The area, covered by Thioflavin-S or GFAP staining, was measured in selected regions.

Turning to “I: SEGNRWSNSTKGLFQRAKK-NH2 / II: SEGNRWSNSTKGLFQRAK / III: SEGNRWSNSTKGLFQRA / IV: SEGNRWSNSTKGLFQRA (amide I:18-IV:C, I:19-II:C, II:18-III:C; C-terminus assumed) [neurolide]”, the “NEP activity compared to untreated 5XFAD control” value on brain-derived NEP is recorded as “significant decrease”. In addition, in the experiment on WT and 5XFAD mice [1] (p-value for treatment 0.9532), the “Y-maze number of arms entered” value is “had no effect”. Also, in the experiment on WT and 5XFAD mice [1] (test at week 11), the Y-maze alternation rate result is reported as “had no effect”. Besides, the “recognition index, short-term memory (2 h)” value is reported as “significantly enhanced” in the experiment with WT and 5XFAD mice [2] (5XFAD mice, versus vehicle, p < 0.05); “impairs memory” with WT and 5XFAD mice [2] (WT mice, vehicle higher than neurolide, p < 0.01). Also, in the experiment on WT and 5XFAD mice [2] (WT and 5XFAD mice, same tendency as at 2 h), the “recognition index, long-term memory (24 h)” value was “no longer statistically significant”. The “area of GFAP-immunoreactivity (gliosis) in the cortex” value in the experiment with 5XFAD mice is reported as “significant increase”.
